Assays:
EthR protein = EthR protein (Mycobacterium tuberculosis, UniProt P9WMC1); assay: TSA test (Thermal Shift Assay), fluorescence with Sypro Orange; type: binding, M. tuberculosis; conditions: melting temperature shift of EthR with ligand vs protein alone
Measurement of the log D = type: physicochemical; conditions: octanol/PBS (1/1); octanol/PBS at pH 7.4, triplicate
Experimental: 40 μL of a solution at 10 mM in the DMSO of the sample are added to 1.96 mL of a mixture of 1/1 octanol/PBS at pH 7.4. The solution is agitated during 2 h at AT. 20 μL of each phase are added to 180 μL MeOH and analyzed by LC-MS. Each compound is evaluated in triplicate. The log D is determined as being the logarithm of the ratio of the product concentrations in the octanol and PBS phases, determined par the mass signals.

[1] = Measurement of the solubility; type: physicochemical; conditions: aqueous buffer, kinetic from dmso stock; PBS at pH 7.4, 24 h at AT, LC-MS ratio PBS/MeOH; read-out: Solubilité
Experimental: Measurement of the Solubility
40 μL of a solution at 10 mM in DMSO of the sample are added at 1.96 mL MeOH or PBS at pH 7.4. The samples are then agitated during 24 h at AT, centrifuged during 5 min and then filtrated on filters of 0.45 μm size. 20 μL of each solution are then added to 180 μL MeOH and then analyzed by LC-MS. The solubility is determined as ratio of the surfaces of the mass signals PBS/MeOH.

[2] = test system: M. tuberculosis alone or macrophages infected by M. tuberculosis; assay: Potentiation of ethionamide cell test (High Content Screening); type: cell-based; conditions: ligand concentration potentiating ten times the activity of ethionamide; ethionamide constant at 0.1 μg/mL (1/10th of its CMI99); read-out: EC50
[3] = molecular target: EthR protein (interaction with the ethA gene promoter) (Mycobacterium tuberculosis, UniProt P9WMC1); assay: Surface Plasmon Resonance test (SPR): inhibition of EthR binding to the ethA gene promoter; type: biochemical, M. tuberculosis
From the text: Surface Plasmon Resonance test (SPR) (described in the article “Ethionamide Boosters Combining Bioisosteric Replacement and Structure-Based Drug Design to Solve Pharmacokinetic Issues in a series of potent 1,2,4-Oxadiazole EthR Inhibitors” published in 2012 in the Journal of Medicinal Chemistry)
After having measured the ligands' affinity for the protein, it is necessary to verify that this does indeed result in the inactivation of the transcriptional repressor, thus preventing it from binding to its operon. For this, a functional test based on the principle of surface plasmon resonance is used. Surface Plasmon Resonance (SPR) makes it possible to visualize in real time the phenomena of association or dissociation between a partner immobilized on a biosensor and, a second partner injected in a continuous flow onto this surface. In the present case, the SPR technique enables the interaction between the EthR protein (analyte injected in continuous flow) and the ethA gene promoter (partner immobilized on the surface) to be visualized. Two cells are used for the test: a measuring cell onto which the so-called relevant DNA is affixed, i.e. corresponding to the ethA gene promoter, and a control cell on which is a non-relevant (thus different) DNA strand of same length, enabling the non-specific protein/DNA interactions to be removed. In a first step, the EthR protein is injected alone, until saturation, which enables a signal SIEthR corresponding to the quantity of EthR protein that has come to bind to the DNA to be measured. In a second step, the experience is reiterated in the presence of a potential ligand at different concentrations. If the compound binds to the EthR, thus preventing it from coming to bind on the DNA, a diminution of the response of the dose-dependent signal (SIEthR+lig) is observed.
By using the equation hereafter, it is possible to calculate for each concentration a percentage for the inhibition of the ligand under examination:
By representing the variation of the inhibition percentage depending on the ligand concentration, a value for IC50 can be deduced.

Chain of EthR protein (interaction with the ethA gene promoter) (P9WMC1 whole entry, looked up): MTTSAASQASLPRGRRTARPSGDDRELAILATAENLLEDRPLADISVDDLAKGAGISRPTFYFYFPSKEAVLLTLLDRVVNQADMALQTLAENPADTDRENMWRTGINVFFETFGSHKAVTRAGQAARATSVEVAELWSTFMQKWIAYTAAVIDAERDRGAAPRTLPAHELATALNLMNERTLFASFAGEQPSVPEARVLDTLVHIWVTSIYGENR
Chain of EthR protein (P9WMC1 whole entry, looked up): as above

Row | Structure (SMILES) | ΔTm (EthR protein) [°C] | logD at 2 h (Measurement of the log D) | solubility at 24 h [1] [µM] | EC50 [2] [nM] | IC50 [3] [nM]
1 | Cc1nc(-c2ccc(S(=O)(=O)NCCC(C)C)cc2)cs1 [Compound 6, 4-(2-methylthiazol-4-yl)-N-isopentyl benzene sulfonamide] | 6.1 | 3.55 | 20 | 5700 | 4900 ± 100
2 | CCc1cc(-c2nc(-c3ccc(C(=O)NCCC(F)(F)F)cc3)cs2)ccn1 [Compound 58, 4-(2-(2-ethylpyridin-4-yl)thiazol-4-yl)-N-(3,3,3-trifluoropropyl)benzamide] | 13.3 | 3.95 | 3.3 | < 10 | 
3 | CC(C)Cc1nc(-c2ccc(C(=O)NCCC(F)(F)F)cc2)cs1 [Compound 49, 4-(2-isobutylthiazol-4-yl)-N-(3,3,3-trifluoropropyl)benzamide] | 12.6 | 3.91 | 4.4 | < 40 | 440 ± 10
4 | CC(C)CCCc1nc(-c2ccc(S(=O)(=O)NCCC(F)(F)F)cc2)cs1 [Compound 38, 4-(2-(4-methylpentyl)thiazol-4-yl)-N-(3,3,3-trifluoropropyl)benzene sulfonamide] | 12.4 | > 4 | < 1 | 390 | 
5 | CC(C)OC(=O)Cc1nc(-c2ccc(S(=O)(=O)NCCC(F)(F)F)cc2)cs1 [Compound 35, 2-(4-(4-(N-(3,3,3-trifluoropropyl)sulfamoyl)phenyl)thiazol-2-yl) isopropyl acetate] | 11.6 | 3.76 | 2.8 | 300 | 
6 | Cc1nc(-c2ccc(C(=O)NCCC(F)(F)F)cc2)cs1 [Compound 43, 4-(2-methylthiazol-4-yl)-N-(3,3,3-trifluoropropyl)benzamide] | 11.4 | 2.82 | 46.9 | 83 | 480 ± 60
7 | O=C(NCCC(F)(F)F)c1ccc(-c2csc(-c3ccncc3)n2)cc1 [Compound 57, 4-(2-(pyridin-4-yl)thiazol-4-yl)-N-(3,3,3-trifluoropropyl)benzamide] | 12.6 | 3.07 | 29 | < 10 | 
8 | Cc1nc(-c2ccc(S(=O)(=O)NCCC(F)(F)F)cc2)cs1 [Compound 24] | 8.5 | 3.12 | 41.4 | 290 | 550 ± 20
